In US12435060B2, “Acylamino bridged heterocyclic compound, and composition and application thereof” (BEIJING SCITECH-MQ PHARMACEUTICALS LIMITED, priority 2019, dated 2025):

Assays:
[1] = tested on: HT29 cells; test: Inhibition of cell necrosis (CCK8 method), induced programmed necrosis of HT29 cells; assay type: cell-based; details: Homo sapiens, HT-29; rescue from necrosis induced by TNF-α 20 ng/mL, AT-406 1 μM, Z-VAD-FMK 20 μM; 16-20 hours; CCK-8, OD 450 nm
In short: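 Rescue from programmed necrosis was scored by CCK-8 absorbance at 450 nm after 16-20 h of TNF-α (20 ng/mL), AT-406 (1 μM) and Z-VAD-FMK (20 μM) at 37 °C, 5% CO2. HT29 cells had received compound 30 min earlier across nine 4-fold dilutions (top 25000 nM final). IC50 came from % inhibition relative to uninduced and induced-only wells.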

[2] = target: T1, RIPK1 (Homo sapiens, UniProt Q13546); test: Western blot determination of inhibition of RIPK1 phosphorylation in HT29 cells; assay type: cell-based; details: Z-VAD-FMK 20 μM, TNF-α 20 ng/mL, AT-406 100 nM, 7 hours, FIG. 1 and FIG. 2
T1 construct: the phosphorylation of intracellular RIPK1 during the induction of programmed necrosis of HT29 cells; endogenous in cells; host or cells: HT29 cells
T1 sequence (Q13546 1-671): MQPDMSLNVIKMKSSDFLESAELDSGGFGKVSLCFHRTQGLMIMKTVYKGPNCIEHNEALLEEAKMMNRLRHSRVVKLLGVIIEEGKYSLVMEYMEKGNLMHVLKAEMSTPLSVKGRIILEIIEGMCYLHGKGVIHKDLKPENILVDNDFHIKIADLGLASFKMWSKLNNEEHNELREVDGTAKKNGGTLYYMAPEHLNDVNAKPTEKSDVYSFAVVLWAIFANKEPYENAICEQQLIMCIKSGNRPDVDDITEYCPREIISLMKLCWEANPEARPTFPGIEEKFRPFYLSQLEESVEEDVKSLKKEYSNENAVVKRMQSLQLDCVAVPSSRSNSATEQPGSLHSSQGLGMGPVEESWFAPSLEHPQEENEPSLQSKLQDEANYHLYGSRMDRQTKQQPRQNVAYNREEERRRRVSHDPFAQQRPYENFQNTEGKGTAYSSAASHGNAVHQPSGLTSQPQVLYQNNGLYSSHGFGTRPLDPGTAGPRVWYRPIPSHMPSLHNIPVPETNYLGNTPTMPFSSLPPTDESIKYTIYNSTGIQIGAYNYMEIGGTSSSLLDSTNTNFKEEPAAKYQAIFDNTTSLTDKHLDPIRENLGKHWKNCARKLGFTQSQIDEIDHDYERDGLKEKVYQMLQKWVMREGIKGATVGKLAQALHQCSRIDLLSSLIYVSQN
Procedure: Assay Example 1. Western Blot Determination of Inhibition of Compounds on RIPK1 Phosphorylation in HT29 Cells
Western blot was used to determine the effect of the test compounds on the phosphorylation of intracellular RIPK1 during the induction of programmed necrosis of HT29 cells, verifying the effect of compounds on RIPK1 phosphorylation, and initially estimating the IC50 range of compounds for RIPK1 phosphorylation.
II. Experiment Procedure • 1. […] 40-50 ug of protein sample to be determined or pre-stained two-color protein molecular weight standard were added to each well. • 4. […]

| SMILES | IC50 [1] | inhibition of RIPK1 phosphorylation [2] |
| --- | --- | --- |
| Cc1ccccc1-c1ccnc(NC(=O)c2nnc(Cc3ccccc3)[nH]2)c1 [Example 2, 5-benzyl-N-(4-(o-methylphenyl)pyridin-2-yl)-4H-1,2,4-triazole-3-carboxamide] | 100 to 1000 nM | directly inhibit the phosphorylation activation of RIPK1 |
| Cc1ccc(OCC2CCOCC2)cc1-c1cc(NC(=O)c2nnc(CC3CCCCC3)[nH]2)ncn1 [Example 444, 5-(cyclohexylmethyl)-N-(6-(2-methyl-5-((tetrahydro-2H-pyran-4-yl)methoxy)phenyl)pyrimidin-4-yl)-4H-1,2,4-triazole-3-carboxamide] | ≤ 100 nM | – |
| COc1ccc(-c2ccnc(NC(=O)c3nnc(Cc4ccccc4)[nH]3)c2)c(C)c1 [Example 10, 5-benzyl-N-(4-(4-methoxy-2-methylphenyl)pyridin-2-yl)-4H-1,2,4-triazole-3-carboxamide] | 1000 to 10000 nM | – |
| CCn1nc(C)cc1-c1ccnc(NC(=O)c2nnc(Cc3ccccc3)[nH]2)c1 [Example 109, 5-benzyl-N-(4-(1-ethyl-3-methyl-1H-pyrazol-5-yl)pyridin-2-yl)-4H-1,2,4-triazole-3-carboxamide] | 1000 to 10000 nM | – |
| COc1ccc(C)c(-c2ccnc(NC(=O)c3nnc(CC4CCCC4)[nH]3)c2)c1 [Example 102, 5-(cyclopentylmethyl)-N-(4-(5-methoxy-2-methylphenyl)pyridin-2-yl)-4H-1,2,4-triazole-3-carboxamide] | 100 to 1000 nM | – |
| Cc1ccc(C(=O)NCCC(C)(C)O)cc1-c1ccnc(NC(=O)c2nnc(Cc3ccccc3)[nH]2)c1 [Example 487, 5-benzyl-N-(4-(5-((3-hydroxyl-3-methylbutyl)carbamoyl)-2-methylphenyl)pyridin-2-yl)-4H-1,2,4-triazole-3-carboxamide] | 100 to 1000 nM | – |
| CC(C)(O)CCCOc1ccc(Cl)c(-c2ccnc(NC(=O)c3nnc(Cc4cc(-c5ccccc5)ccc4F)[nH]3)c2)c1 [Example 504, N-(4-(2-chloro-5-((4-hydroxy-4-methylpentyl)oxy)phenyl)pyridin-2-yl)-5-((4-fluoro-[1,1′-biphenyl]-3-yl)methyl)-4H-1,2,4-triazole-3-carboxamide] | 100 to 1000 nM | – |
| COCCCOc1ccc(Cl)c(-c2ccnc(NC(=O)c3nnc(CC4CCCC4)[nH]3)c2)c1 [Example 397, N-(4-(2-chloro-5-(3-methoxypropoxy)phenyl)pyridin-2-yl)-5-(cyclopentylmethyl)-4H-1,2,4-triazole-3-carboxamide] | ≤ 100 nM | – |
| Cc1ccc(OCC(C)(C)O)cc1-c1ccnc(NC(=O)c2nnc(Cc3ccccc3)[nH]2)c1 [Example 117, 5-benzyl-N-(4-(5-(2-hydroxyl-2-methylpropoxy)-2-methylphenyl)pyridin-2-yl)-4H-1,2,4-triazole-3-carboxamide] | ≤ 100 nM | – |
| O=C(Nc1cc(-c2cc(OCCC3CCOCC3)ccc2Cl)c(F)cn1)c1nnc(CC2CCCCC2)[nH]1 [Example 429, N-(4-(2-chloro-5-(2-(tetrahydro-2H-pyran-4-yl)ethoxy)phenyl)-5-fluoropyridin-2-yl)-5-(cyclohexylmethyl)-4H-1,2,4-triazole-3-carboxamide] | ≤ 100 nM | – |
| Cc1ccc(OCC2CCN(C)CC2)cc1-c1ccnc(NC(=O)c2nnc(Cc3ccccc3F)[nH]2)c1 [Example 234, 5-(2-fluorobenzyl)-N-(4-(2-methyl-5-((1-methylpiperidin-4-yl)methoxy)phenyl)pyridin-2-yl)-4H-1,2,4-triazole-3-carboxamide] | ≤ 100 nM | – |
